Key:
CCRF-CEM = assay: Cytotoxicity against human CEM cells; assay type: functional
[1] = target: T1, Human immunodeficiency virus type 1 integrase (Human immunodeficiency virus 1, UniProt Q7ZJM1); assay: Inhibition of HIV1 integrase 3' strand transfer activity
[2] = test system: Human immunodeficiency virus 1; assay: Antiviral activity against HIV1 Rf infected in CEM cells assessed as inhibition of viral replication after 5 days; assay type: functional, organism-based; conditions: Human immunodeficiency virus 1, Rf, CCRF-CEM, 120 h
[3] = target: T1, Human immunodeficiency virus type 1 integrase; assay: Inhibition of HIV1 integrase 3' processing activity
[4] = Cmax in rat at 2 mg/kg, iv; conditions: in vivo
[5] = Tmax in rat at 5 mg/kg, po and 2 mg/kg, iv; conditions: in vivo
[6] = Plasma clearance in rat at 5 mg/kg, po and 2 mg/kg, iv
Rattus norvegicus = assay: Volume of distribution at steady state in rat at 5 mg/kg, po and 2 mg/kg, iv; conditions: in vivo
[7] = Cmax in rat at 5 mg/kg, po; assay type: ADME, organism-based; parameters: dose 5 mg/kg, route oral; conditions: in vivo
[8] = Half life in rat at 5 mg/kg, po; assay type: ADME, organism-based; parameters: dose 5 mg/kg, route oral; conditions: in vivo
[9] = Oral bioavailability in rat at 5 mg/kg; assay type: ADME, organism-based; conditions: in vivo
[10] = Half life in rat at 2 mg/kg, iv; conditions: in vivo

T1 sequence (Q7ZJM1 whole entry): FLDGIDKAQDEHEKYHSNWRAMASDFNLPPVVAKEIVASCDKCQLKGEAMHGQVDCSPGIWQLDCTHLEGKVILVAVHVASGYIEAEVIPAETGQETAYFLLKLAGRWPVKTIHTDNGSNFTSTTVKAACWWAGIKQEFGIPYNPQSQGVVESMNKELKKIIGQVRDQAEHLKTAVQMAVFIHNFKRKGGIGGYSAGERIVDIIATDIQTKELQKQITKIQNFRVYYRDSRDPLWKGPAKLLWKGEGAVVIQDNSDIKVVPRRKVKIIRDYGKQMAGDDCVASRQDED

| SMILES | CC50 (CCRF-CEM) [µM] | IC50 [1] [µM] | EC50 [2] [µM] | IC50 [3] [µM] | also measured |
| --- | --- | --- | --- | --- | --- |
| CCCOc1ccc2c(c1)C(=O)C(C1=C(O)C(=O)c3c(ccc4c3C=CC(C)(C)O4)C1=O)=C(C1=C(O)C(=O)c3c(ccc4c3C=CC(C)(C)O4)C1=O)C2=O | 1 | 5 | 0.009 | 2.8 |  |
| COc1cc2c(cc1OC)C(=O)C(C1=C(C3=C(O)C(=O)c4cc(OC)c(OC)cc4C3=O)C(=O)c3ccccc3C1=O)=C(O)C2=O |  | 12 | > 20 | 62 |  |
| CC(C)Oc1ccc2c(c1)C(=O)C(C1=C(O)C(=O)c3c(ccc4c3C=CC(C)(C)O4)C1=O)=C(C1=C(O)C(=O)c3c(ccc4c3C=CC(C)(C)O4)C1=O)C2=O | > 20 | > 100 | 0.24 | 3 |  |
| COc1ccc2c(c1)C(=O)C(O)=C(C1=C(C3=C(O)C(=O)c4cc(OC)ccc4C3=O)C(=O)c3ccccc3C1=O)C2=O |  | 10 | > 20 | 22.5 |  |
| O=C1C(O)=C(C2=C(C3=C(O)C(=O)c4ccccc4C3=O)C(=O)c3ccccc3C2=O)C(=O)c2ccccc21 | 48 | 13 | 16 | 56 |  |
| COc1cc2c(cc1OC)C(=O)C(C1=C(C3=C(O)C(=O)c4cc(OC)c(OC)cc4C3=O)C(=O)c3cc(OC)c(OC)cc3C1=O)=C(O)C2=O |  | 10 |  | > 150 |  |
| CC1(C)C=Cc2c(ccc3c2C(=O)C(O)=C(C2=C(C4=C(O)C(=O)c5c(ccc6c5C=CC(C)(C)O6)C4=O)C(=O)c4c(ccc5c4C=CC(C)(C)O5)C2=O)C3=O)O1 | > 20 | 3 | 0.39 | 1.7 |  |
| CC1(C)C=Cc2c(ccc3c2C(=O)C(O)=C(C2=C(C4=C(O)C(=O)c5c(ccc6c5C=CC(C)(C)O6)C4=O)C(=O)c4c(ccc5c4CCC(C)(C)O5)C2=O)C3=O)O1 | > 20 | 6 | 0.47 | 1.8 | Cmax [4]: 50200 ng/mL; Tmax [5]: 7.5 h; clearance [6]: 0.00733 mL/min; Vdss (Rattus norvegicus): 27.7 mL; Cmax [7]: 3200 ng/mL; half-life [8]: 21.7 h; bioavailability [9]: 2.6%; half-life [10]: 45 h |
| COc1cccc2c1C(=O)C(C1=C(C3=C(O)C(=O)c4cccc(OC)c4C3=O)C(=O)c3ccccc3C1=O)=C(O)C2=O |  | 13 | > 20 |  |  |
| CC1(C)CCc2c(ccc3c2C(=O)C(O)=C(C2=C(C4=C(O)C(=O)c5c(ccc6c5CCC(C)(C)O6)C4=O)C(=O)c4c(ccc5c4CCC(C)(C)O5)C2=O)C3=O)O1 |  | 9 |  |  |  |
| CC1(C)C=Cc2c(ccc3c2C(=O)C(O)=C(C2=C(C4=C(O)C(=O)c5c(ccc6c5C=CC(C)(C)O6)C4=O)C(=O)N(Cc4ccccc4)C2=O)C3=O)O1 |  | 4 | > 20 | 4.5 |  |
| CC1(C)C=Cc2c(ccc3c2C(=O)C(O)=C(C2=C(C4=C(O)C(=O)c5c(ccc6c5C=CC(C)(C)O6)C4=O)C(=O)c4ccccc4C2=O)C3=O)O1 | 10 | 2 | 0.029 | 2.5 |  |
| COc1ccc2c(c1)C(=O)C(C1=C(O)C(=O)c3c(ccc4c3C=CC(C)(C)O4)C1=O)=C(C1=C(O)C(=O)c3c(ccc4c3C=CC(C)(C)O4)C1=O)C2=O | 10 | 2.5 | 0.027 | 2.3 |  |

From ChEMBL document CHEMBL1221315, “Antiviral agents 2. Synthesis of trimeric naphthoquinone analogues of conocurvone and their antiviral evaluation against HIV” (Bioorg Med Chem, 2010)
